As a reminder, the pIC50 is −log10 of the IC50, conventionally taken in molar units.

pIC50: −log10 of the molar value.

For the experiment, the target named is Replicase polyprotein 1ab (Severe acute respiratory syndrome coronavirus 2, UniProt P0DTD1). Nature of the experiment: Inhibition of full-length recombinant SARS-CoV-2 3CL protease expressed in Escherichia coli BL21 (DE3) using FAM- KTSAVLQSGFRKMEK-TAMRA as substrate pre-incubated for 1 hr with compound followed by substrate addition measured after 30 mins by FRET analysis.
As for `CC(C)(C)[C@H](NC(=O)C(F)(F)F)C(=O)N1C[C@H]2[C@@H]([C@H]1C(=O)NN(C[C@@H]1CCNC1=O)C(=O)CCl)C2(C)C`, the pIC50 was 8.22.
The figure for `CC[C@H](C)[C@H](NC(=O)C(F)(F)C(F)(F)F)C(=O)N1C[C@@H]2CCC[C@@H]2[C@H]1C(=O)NN(C[C@@H]1CCNC1=O)C(=O)[C@H](F)Cl` is 8.22.
For `CCC(CC)[C@H](NC(=O)C(F)(F)F)C(=O)N1C[C@H]2[C@@H]([C@H]1C(=O)NN(C[C@@H]1CCNC1=O)C(=O)[C@H](F)Cl)C2(C)C`, the pIC50 was 8.15.

Source of the values: ChEMBL document CHEMBL5370594, “Novel Compounds for Preventing SARS-CoV-2 Viral Replication and Treating COVID-19” (ACS Med Chem Lett, 2023).
